Source: PMC6886544
Values joined by “and” are separate entries in the source; they are usually repeats but may differ in a detail not shown here. Equal entries are not always repeated. Where two headings read alike, the source gives them in different places.

Assays:
[1] = tested on: HCC827 cells (EGFR-delE746_A750); experiment: CellTiter-Glo viability assay, HCC827; type: cell-based; conditions: Homo sapiens; HCC827, 96 hours, CellTiter-Glo; read-out: EGFR CTG EC50 HCC827;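 further: luminescence from ATP content as a measure of metabolically active cells, in RPMI with 10% FBS, compound added as serial dilutions after 24 h of preculture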
[2] = tested on: H1975 cells (EGFR-L858R/T790M); experiment: CellTiter-Glo viability assay, H1975; conditions: Homo sapiens
[3] = tested on: A431 cells (EGFR wild type); experiment: CellTiter-Glo viability assay, A431; conditions: Homo sapiens, A-431, 96 h, read-out: EGFR CTG EC50 A431, A431, 96 hours, CellTiter-Glo
H358 cells (KRAS mutant) = experiment: CellTiter-Glo viability assay, H358; type: cell-based; conditions: Homo sapiens, read-out: KRAS CTG EC50 H358;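 further: viable cell number estimated from ATP-dependent luminescence following exposure to serially diluted inhibitor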
A549 cells (KRAS mutant) = experiment: CellTiter-Glo viability assay, A549; conditions: Homo sapiens, A549, 96 h, read-out: KRAS CTG EC50 A549
[4] = Microsomal stability (phase I), mouse; type: in vitro ADME; conditions: mouse liver microsomes, up to 60 minutes, 37 °C
Experimental: Microsomal stability (phase I) assay.
Metabolic stability under oxidative conditions was measured in liver microsomes from different
time up to 50 minutes (HLM) or 60 minutes (MLM) at 37 °C. Based on the compound half-life t1/2,
the in vitro intrinsic clearance CLint was calculated. […]

EGFR-wt = EGFR-wt (Homo sapiens, UniProt P00533); experiment: HTRF KinEASE-TK activity-based assay, EGFR-wt
EGFR-L858R = EGFR-L858R (Homo sapiens, UniProt P00533, L858R); experiment: HTRF KinEASE-TK activity-based assay, EGFR-L858R
EGFR-L858R/T790M = EGFR-L858R/T790M (Homo sapiens, UniProt P00533, L858R/T790M); experiment: HTRF KinEASE-TK activity-based assay, EGFR-L858R/T790M
[5] = NCI-H1975, 96 h, read-out: EGFR CTG EC50 H1975, H1975, 96 hours, CellTiter-Glo
[6] = NCI-H358, H358, 96 hours, CellTiter-Glo
[7] = EGFR HTRF IC50 wt, ATP at Km (9.5 µM), 30 min preincubation, mean ± SD of three independent measurements in duplicates
[8] = EGFR HTRF IC50 L858R/T790M, ATP at Km (4 µM), 30 min preincubation, mean ± SD of three independent measurements in duplicates
[9] = NCI-H1975, read-out: EC50 / potency in H1975 cells, H1975, rounded value in running text

Sequence of EGFR-L858R (P00533 25-1210 L858R): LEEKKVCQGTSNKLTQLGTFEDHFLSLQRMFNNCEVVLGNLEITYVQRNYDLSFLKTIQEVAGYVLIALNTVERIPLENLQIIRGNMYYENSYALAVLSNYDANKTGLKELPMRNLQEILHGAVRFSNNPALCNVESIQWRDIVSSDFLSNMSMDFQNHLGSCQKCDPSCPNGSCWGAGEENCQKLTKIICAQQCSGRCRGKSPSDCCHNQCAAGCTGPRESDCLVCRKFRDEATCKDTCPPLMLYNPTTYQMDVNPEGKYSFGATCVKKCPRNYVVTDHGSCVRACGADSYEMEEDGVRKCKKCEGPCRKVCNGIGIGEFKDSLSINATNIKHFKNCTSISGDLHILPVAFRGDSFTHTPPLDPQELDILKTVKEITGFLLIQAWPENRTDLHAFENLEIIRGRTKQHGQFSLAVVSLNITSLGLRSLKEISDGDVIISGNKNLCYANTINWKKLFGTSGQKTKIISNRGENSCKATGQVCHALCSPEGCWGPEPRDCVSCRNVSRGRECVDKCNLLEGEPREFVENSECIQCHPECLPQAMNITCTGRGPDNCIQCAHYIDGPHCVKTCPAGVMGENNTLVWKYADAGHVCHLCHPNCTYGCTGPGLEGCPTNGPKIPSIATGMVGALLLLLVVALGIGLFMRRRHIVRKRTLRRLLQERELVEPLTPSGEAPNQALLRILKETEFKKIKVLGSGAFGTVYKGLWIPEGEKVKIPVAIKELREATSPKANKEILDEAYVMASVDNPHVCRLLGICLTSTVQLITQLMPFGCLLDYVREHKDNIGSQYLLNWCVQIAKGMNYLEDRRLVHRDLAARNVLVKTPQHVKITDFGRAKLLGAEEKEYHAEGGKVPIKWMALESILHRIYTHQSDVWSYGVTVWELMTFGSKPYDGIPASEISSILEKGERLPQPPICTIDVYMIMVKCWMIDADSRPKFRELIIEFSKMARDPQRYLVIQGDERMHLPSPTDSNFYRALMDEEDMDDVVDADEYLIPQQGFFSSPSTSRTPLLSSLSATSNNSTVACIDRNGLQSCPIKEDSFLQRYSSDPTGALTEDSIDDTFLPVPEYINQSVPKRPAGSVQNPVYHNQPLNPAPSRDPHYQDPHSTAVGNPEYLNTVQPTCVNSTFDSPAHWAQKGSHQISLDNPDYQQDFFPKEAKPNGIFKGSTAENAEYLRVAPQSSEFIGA
Sequence of EGFR-L858R/T790M (P00533 25-1210 T790M/L858R): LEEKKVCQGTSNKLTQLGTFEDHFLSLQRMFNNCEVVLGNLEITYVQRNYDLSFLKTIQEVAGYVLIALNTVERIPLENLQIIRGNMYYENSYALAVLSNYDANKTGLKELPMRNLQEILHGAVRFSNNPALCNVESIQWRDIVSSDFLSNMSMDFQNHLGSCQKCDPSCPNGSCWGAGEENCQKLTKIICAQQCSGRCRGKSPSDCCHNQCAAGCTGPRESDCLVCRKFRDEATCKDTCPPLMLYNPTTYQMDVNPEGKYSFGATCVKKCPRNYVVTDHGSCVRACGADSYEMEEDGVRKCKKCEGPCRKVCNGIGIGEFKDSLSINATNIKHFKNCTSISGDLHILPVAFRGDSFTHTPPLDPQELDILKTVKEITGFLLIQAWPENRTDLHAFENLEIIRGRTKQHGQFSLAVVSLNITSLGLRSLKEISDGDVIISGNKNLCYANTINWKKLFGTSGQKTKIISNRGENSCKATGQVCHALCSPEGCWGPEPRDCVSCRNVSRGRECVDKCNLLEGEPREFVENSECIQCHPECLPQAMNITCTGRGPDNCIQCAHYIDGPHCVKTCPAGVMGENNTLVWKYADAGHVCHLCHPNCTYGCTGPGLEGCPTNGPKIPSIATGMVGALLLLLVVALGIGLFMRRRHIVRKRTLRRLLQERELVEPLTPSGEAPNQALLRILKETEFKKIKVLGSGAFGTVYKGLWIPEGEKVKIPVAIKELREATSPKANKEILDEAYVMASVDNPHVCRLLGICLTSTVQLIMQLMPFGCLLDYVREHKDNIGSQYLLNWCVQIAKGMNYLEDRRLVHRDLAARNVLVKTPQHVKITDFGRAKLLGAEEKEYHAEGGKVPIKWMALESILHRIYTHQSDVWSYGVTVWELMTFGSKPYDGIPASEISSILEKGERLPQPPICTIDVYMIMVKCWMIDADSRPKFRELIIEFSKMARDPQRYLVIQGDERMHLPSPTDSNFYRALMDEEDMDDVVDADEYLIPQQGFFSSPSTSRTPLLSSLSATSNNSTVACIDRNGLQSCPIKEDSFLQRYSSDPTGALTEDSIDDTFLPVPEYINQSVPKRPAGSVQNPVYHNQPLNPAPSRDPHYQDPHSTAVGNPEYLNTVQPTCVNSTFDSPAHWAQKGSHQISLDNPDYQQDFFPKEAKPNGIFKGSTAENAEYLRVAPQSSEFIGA
Sequence of EGFR-wt (P00533 25-1210): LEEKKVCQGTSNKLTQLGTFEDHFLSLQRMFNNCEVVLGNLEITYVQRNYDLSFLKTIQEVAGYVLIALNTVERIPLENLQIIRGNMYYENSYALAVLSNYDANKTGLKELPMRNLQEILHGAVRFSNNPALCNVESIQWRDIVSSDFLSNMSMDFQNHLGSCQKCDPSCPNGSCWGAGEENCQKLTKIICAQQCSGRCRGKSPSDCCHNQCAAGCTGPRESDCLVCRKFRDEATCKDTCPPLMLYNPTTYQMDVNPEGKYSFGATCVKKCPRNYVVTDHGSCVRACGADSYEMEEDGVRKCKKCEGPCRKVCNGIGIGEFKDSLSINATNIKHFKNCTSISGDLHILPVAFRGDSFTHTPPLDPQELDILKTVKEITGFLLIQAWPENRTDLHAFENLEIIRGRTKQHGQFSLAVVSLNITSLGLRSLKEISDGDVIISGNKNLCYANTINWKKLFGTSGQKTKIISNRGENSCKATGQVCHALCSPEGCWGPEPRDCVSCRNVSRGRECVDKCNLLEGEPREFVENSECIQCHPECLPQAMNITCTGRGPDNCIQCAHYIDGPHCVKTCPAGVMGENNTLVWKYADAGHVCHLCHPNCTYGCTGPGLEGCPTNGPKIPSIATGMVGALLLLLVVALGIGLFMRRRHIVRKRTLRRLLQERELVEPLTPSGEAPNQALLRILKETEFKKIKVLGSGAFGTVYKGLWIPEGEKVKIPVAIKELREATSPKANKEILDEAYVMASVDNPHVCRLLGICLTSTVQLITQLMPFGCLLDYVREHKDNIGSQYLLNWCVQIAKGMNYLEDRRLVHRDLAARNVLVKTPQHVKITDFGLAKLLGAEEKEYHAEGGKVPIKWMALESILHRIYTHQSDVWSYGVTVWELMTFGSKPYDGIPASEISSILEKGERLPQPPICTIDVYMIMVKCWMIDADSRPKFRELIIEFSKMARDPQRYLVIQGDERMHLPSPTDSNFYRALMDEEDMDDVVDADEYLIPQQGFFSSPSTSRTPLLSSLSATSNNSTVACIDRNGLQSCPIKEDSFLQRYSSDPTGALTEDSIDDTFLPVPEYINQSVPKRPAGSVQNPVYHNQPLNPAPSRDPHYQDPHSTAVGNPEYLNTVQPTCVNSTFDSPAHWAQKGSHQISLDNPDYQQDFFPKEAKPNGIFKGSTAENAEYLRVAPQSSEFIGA

| SMILES | EC50 [1] [nM] | EC50 [2, 5] [nM] | EC50 [3] [nM] | EC50 (H358 cells (KRAS mutant); [6]) [nM] | EC50 (A549 cells (KRAS mutant)) [nM] | microsomal CLint at 3 µM [4] [µL/min/mg] | EC50 (H358 cells (KRAS mutant); NCI-H358, 96 h) [nM] | IC50 (EGFR-wt; [7]) [nM] | IC50 (EGFR-wt; IC50 EGFR-wt, rounded value) [nM] | IC50 (EGFR-L858R) [nM] | IC50 (EGFR-L858R/T790M; [8]) | IC50 (EGFR-L858R/T790M; IC50 gatekeeper mutant EGFR, rounded value) [nM] | EC50 [2, 9] [nM] |
| --- | --- | --- | --- | --- | --- | --- | --- | --- | --- | --- | --- | --- | --- |
| CN(C)C/C=C/C(=O)Nc1cc2c(Nc3ccc(F)c(Cl)c3)ncnc2cc1O[C@H]1CCOC1 [Afatinib, afatinib, reference compound] | – | – | – | – | 1490 ± 430 | 6 | 1330 ± 515 | – | – | – | – | – | – |
| C=CC(=O)Nc1cccc(-c2c[nH]c3ncnc(OC)c23)c1 [Compound 9] | 2170 ± 968 | 9910 ± 3390 | – | 24500 ± 4870 | 13600 ± 1400 | – | – | 82 ± 4 | – | 14 ± 2 | < 100 nM and 31 nM | – | – |
| C=CC(=O)Nc1cccc(-c2c(-c3ccc(C)cc3)[nH]c3ncnc(OC)c23)c1 [Compound 10a] | 151 ± 10 | 2040 ± 88 | 9860 ± 4250 | 14200 ± 678 | 10200 ± 504 | 118 | – | 200 ± 148 | – | 93 ± 54 | < 200 nM and 175 nM | – | ~2000 |
| COc1ncnc2[nH]c(-c3ccc(C)cc3)c(-c3cccc(NC(=O)C=CCN(C)C)c3)c12 [Compound 10b] | 282 ± 29 | 980 ± 136 | 2430 ± 991 | 10700 ± 3520 | 7060 ± 3230 | 26 | – | 60 ± 18 | – | 34 ± 11 | 26 ± 8 nM | – | – |
| C=CC(=O)Nc1cccc(-c2c(-c3ccc(N4CCN(C)CC4)cc3)[nH]c3ncnc(OC)c23)c1 [Compound 19a] | < 14 | 60 ± 8 | 638 ± 247 | 1670 ± 721 | 840 ± 289 | – | – | 0.4 | – | 0.1 | 0.2 nM | – | – |
| CCC(=O)Nc1cccc(-c2c(-c3ccc(N4CCN(C)CC4)cc3)[nH]c3ncn(C)c(=O)c23)c1 [Compound 19b] | 1790 ± 727 | – | 9730 ± 4020 | 10200 ± 2240 | 6260 ± 1090 | – | – | 996 ± 395 | – | 147 ± 97 | 305 ± 192 nM | – | – |

The next lines start with the values.

| EC50 [1] [nM] | EC50 [2, 5] [nM] | EC50 [3] [nM] | EC50 (H358 cells (KRAS mutant); [6]) [nM] | EC50 (A549 cells (KRAS mutant)) [nM] | microsomal CLint at 3 µM [4] [µL/min/mg] | EC50 (H358 cells (KRAS mutant); NCI-H358, 96 h) [nM] | IC50 (EGFR-wt; [7]) [nM] | IC50 (EGFR-wt; IC50 EGFR-wt, rounded value) [nM] | IC50 (EGFR-L858R) [nM] | IC50 (EGFR-L858R/T790M; [8]) | IC50 (EGFR-L858R/T790M; IC50 gatekeeper mutant EGFR, rounded value) [nM] | EC50 [2, 9] [nM] | SMILES |
| --- | --- | --- | --- | --- | --- | --- | --- | --- | --- | --- | --- | --- | --- |
| 16 ± 3 | 4680 ± 1030 | 1790 ± 1090 | 3780 ± 383 | 3970 ± 720 | – | – | – | – | – | – | – | – | CCN1CCN(Cc2ccc(-c3cc4c(N[C@H](C)c5ccccc5)ncnc4[nH]3)cc2)CC1 [AEE788, reference compound] |
| 827 ± 234 | – | > 30000 | > 30000 | > 30000 | 156 | – | 1200 ± 87 | ~1000 | 133 ± 57 | 176 ± 33 nM | – | – | C=CC(=O)Nc1cccc(-c2c(-c3ccccc3)[nH]c3ncnc(OC)c23)c1 [Compound 1a] |
| – | > 30000 | > 30000 | > 30000 | > 30000 | – | – | 5370 ± 1920 | 5000 | 1700 ± 747 | 3960 ± 614 nM | 4000 | – | CCC(=O)Nc1cccc(-c2c(-c3ccccc3)[nH]c3ncnc(OC)c23)c1 [Compound 1b] |
| 253 ± 1 | 1900 ± 269 | 2750 ± 1220 | 4250 ± 336 | 4480 ± 896 | – | – | 220 ± 57 | – | 197 ± 11 | 158 ± 16 nM | – | ~2000 | COc1ncnc2[nH]c(-c3ccc(C)cc3)c(-c3cccc(NC(=O)C=CCN4CCCCC4)c3)c12 [Compound 10c] |
| 1520 ± 399 | 9610 ± 1120 | 5670 ± 60 | 10300 ± 2170 | 5730 ± 1430 | – | – | 460 ± 162 | – | 116 ± 57 | 302 ± 84 nM | – | – | CCC(=O)Nc1cccc(-c2c(-c3ccc(CN4CCN(C)CC4)cc3)[nH]c3ncnc(OC)c23)c1 [Compound 17b] |
| < 14 | 64 ± 25 | 759 ± 394 | 1660 ± 759 | 1020 ± 46 | – | – | 0.2 ± 0.1 | – | < 0.1 | 0.1 ± 0.1 nM | – | – | C=CC(=O)Nc1cccc(-c2c(-c3ccc(N4CCN(C)CC4)cc3)[nH]c3ncnc(OCC)c23)c1 [Compound 19c] |
| < 14 | 281 ± 88 | 3680 ± 500 | 2570 ± 338 | 3010 ± 916 | – | – | 0.2 | – | < 0.1 | 0.1 ± 0.1 nM | – | – | C=CC(=O)Nc1cccc(-c2c(-c3ccc(N4CCN(C)CC4)cc3)[nH]c3ncnc(OCCCSC)c23)c1 [Compound 19e] |
